The values below come from patent US10881110B2, “Herbicidal compositions comprising isoxazolo[5,4-b]pyridines” (BASF SE, priority 2014, dated 2021).

The structures appear in SMILES notation.

What all share (assay): greenhouse post-emergence herbicidal test
The subject of assay [1] is ECHCG. It is filed as in vivo, Echinochloa crus-galli. Details: key to herbicidal activity against ECHCG found / herbicidal activity against ECHCH found: scale 0 to 100. The note with it: for herbicidal activity against ECHCG found: B.167 125 g/ha a.i. The procedure: (§1) The culture containers used were plastic pots containing medium loamy sand with approximately 4.6% of humus and 69.9% sand as substrate. The seeds of the test plants were sown separately for each species.
(§2) For the post-emergence treatment, the test plants were grown to a plant height of from 1 to 15 cm, depending on the plant habit, and only then treated with the active compounds which had been suspended or emulsified in water. To this end, the test plants were either sown directly, and grown in the same containers, or they were first grown separately as seedlings and transplanted into the test containers a few days prior to treatment.
(§3) Depending on the species, the plants were kept at 10-25° C. and 20-35° C., respectively.
(§4) The test period extended over 1 to 3 weeks. During this time, the plants were tended and their response to the individual treatments was evaluated 20 days after treatment except mentioned otherwise.
(§5) Evaluation was carried out using a scale from 0 to 100. 100 means no emergence of the plants, or complete destruction of at least the above-ground parts, and 0 means no damage or normal course of growth.
(§6) The respective stated components A and B, and, if appropriate, C, were formulated as a 10% by weight strength emulsion concentrate and, with addition of the amount of solvent system, introduced into the spray liquor used for applying the active compound. In the examples, the solvent used was water.
(§7) In the examples below, using the method of S. R. Colby (1967) “Calculating synergistic and antagonistic responses of herbicide combinations”, Weeds 15, p. 22 ff., the value E, which is expected if the activity of the individual active compounds is only additive, was calculated. E=X+Y−(X·Y/100)

In assay [2] the test system is ERICA. Type of assay: in vivo, Conyza canadensis. The note with it: Erigeron canadensis, post-emergence, 480 h, read-out: herbicidal activity against ERICA found. Put shortly: (§8)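 Seeds sown per species in loamy sand with roughly 4.6% humus; seedlings raised to 1 to 15 cm, then treated with water-borne spray of a 10% by weight emulsion concentrate. Response assessed on day 20 from 0 (normal growth) to 100 (destroyed).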

In assay [3] the test system is GERDI. Type of assay: in vivo, Geranium dissectum. Also noted: key to herbicidal activity against GERDI found: rating on a scale from 0 to 100. Put shortly:
as §8

Assay [4] deals with KCHSC. It is filed as in vivo, Kochia scoparia. Details: key to herbicidal activity against KCHSC found: rating on a scale from 0 to 100. The note with it: for herbicidal activity against KCHSC found: B.167 62.5 g/ha a.i. The procedure: as §1, §2, §3, §4, §5, §6, §7
For assay [5], the system named is MATCH. Type of assay: in vivo, Matricaria recutita. The note with it: for herbicidal activity against MATCH found: I.1 62.5 g/ha. Also noted: key to herbicidal activity against MATCH found: rating on a scale from 0 to 100. The essentials:
as §8

The subject of assay [6] is POLCO. It is filed as in vivo, Polygonum convolvulus. Details: key to herbicidal activity against POLCO found: rating on a scale from 0 to 100. Put shortly:
(§9)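 Herbicidal activity scored on a 0 (no damage) to 100 (plants destroyed) scale, usually 20 days after water-based spraying of 1–15 cm plants grown in loamy sand at 10-25 °C or 20-35 °C depending on species. Components were applied from 10% emulsion concentrates; Colby's E=X+Y−(X·Y/100) gives the additive expectation.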

For assay [7], the system named is VIOAR. Type of assay: in vivo, Viola arvensis. The note with it: Viola arvensis, post-emergence, read-out: herbicidal activity against VIOAR found. The essentials:
as §9

In assay [8] the test system is ALOMY. It is filed as in vivo, Alopecurus myosuroides. The note with it: Alopecurus myosuroides, post-emergence, 480 h, post emergence, read-out: herbicidal activity against ALOMY found. Put shortly: as §8
Assay [9] deals with APESV. It is filed as in vivo, Apera spica-venti. The note with it: Apera spica-venti, post-emergence, 480 h, post emergence, read-out: herbicidal activity against APESV found. The procedure:
as §1, §2, §3, §4, §5, §6, §7

For assay [10], the system named is IPOHE. It is filed as in vivo, Ipomoea hederacea. The note with it: Ipomoea hederacea, post-emergence, 480 h, single active, 50 g/ha a.i., post emergence; read-out: herbicidal activity against IPOHE found. The procedure:
as §1, §2, §3, §4, §5, §6, §7

For assay [11], the system named is ABUTH. Type of assay: in vivo, Abutilon theophrast. Details: key to herbicidal activity against ABUTH found: rating on a scale from 0 to 100. The note with it: post emergence, I.1 62.5 g/ha. The essentials: as §8
Assay [12] deals with GALAP. It is filed as in vivo, Galium aparine. The note with it: Galium aparine, post-emergence, 480 h, post emergence; aclonifen 250 g/ha a.i.; read-out: herbicidal activity against GALAP found. The essentials: as §9
The mark [13] stands for this setting: single active, 50 g/ha a.i., post emergence.
Setting [14] is: post emergence, I.1 62.5 g/ha, B.167 125 g/ha a.i.

As for `CS(=O)(=O)c1ccc(C(=O)C2C(=O)CCCC2=O)c(Cl)c1` [B.104, sulcotrione], the pest or weed control at 15 g/ha in [1] (Echinochloa crus-galli, post-emergence, 480 h, read-out: herbicidal activity against ECHCG found) was 80%; in assay [2] it was 75%; in [3] (Geranium dissectum, post-emergence, 480 h, read-out: herbicidal activity against GERDI found) it was 45%; in assay [4] (Bassia scoparia, post-emergence, 480 h, read-out: herbicidal activity against KCHSC found), 90%; in assay [5] (Matricaria chamomilla, post-emergence, 480 h, read-out: herbicidal activity against MATCH found), 10%; in assay [6] (Fallopia convolvulus, post-emergence, 480 h, read-out: herbicidal activity against POLCO found), 90%. The pest or weed control at 15 g/ha in assay [7] amounted to 85%.

For `CC(C)N(C(=O)COc1nnc(C(F)(F)F)s1)c1ccc(F)cc1` [B.130, flufenacet], the pest or weed control at 50 g/ha turned out to be 40% in assay [8] (single active, 50 g/ha a.i.); 85% in assay [9] (single active, 50 g/ha a.i.); 0% in assay [2] (setting [13]); 10% in assay [3] (Geranium dissectum, post-emergence, 480 h, single active, 50 g/ha a.i., post emergence, read-out: herbicidal activity against GERDI found); 60% in assay [10]; 0% in [4] (Bassia scoparia, post-emergence, 480 h, single active, 50 g/ha a.i., post emergence, read-out: herbicidal activity against KCHSC found). Further, the pest or weed control at 50 g/ha in [5] (Matricaria chamomilla, post-emergence, 480 h, single active, 50 g/ha a.i., post emergence, read-out: herbicidal activity against MATCH found) amounted to 0%; in assay [6] (Fallopia convolvulus, post-emergence, 480 h, single active, 50 g/ha a.i., post emergence, read-out: herbicidal activity against POLCO found) it was 10%; in [7] (setting [13]), 80%. Besides, the pest or weed control at 100 g/ha in assay [8] (single active, 100 g/ha a.i.) is 65%; in assay [1] (Echinochloa crus-galli, post-emergence, 480 h, single active, 100 g/ha a.i., post emergence, read-out: herbicidal activity against ECHCG found), 65%; in assay [3] (Geranium dissectum, post-emergence, 480 h, single active, 100 g/ha a.i., post emergence, read-out: herbicidal activity against GERDI found) it was 10%; in assay [5] (Matricaria chamomilla, post-emergence, 480 h, single active, 100 g/ha a.i., post emergence, read-out: herbicidal activity against MATCH found) it was 20%; in assay [6] (Fallopia convolvulus, post-emergence, 480 h, single active, 100 g/ha a.i., post emergence, read-out: herbicidal activity against POLCO found) it was 10%.

`O=C(O)c1c(Cl)ccc2cc(Cl)cnc12` [B.167, quinclorac]: the figures for the “herbicidal activity against ABUTH found” value in assay [11] (B.167 62.5 g/ha a.i.) and in assay [11] (B.167 125 g/ha a.i.) were 65 and 70, respectively. For the same compound, the “herbicidal activity against ECHCG found” value in assay [1] (post emergence, I.1 15.62 g/ha) is given as 20; in assay [1] (post emergence, I.1 31.25 g/ha), 20. Moreover, the “herbicidal activity against GERDI found” value in [3] (setting [14]) is on record as 0. The “herbicidal activity against KCHSC found” value in assay [4] (post emergence, I.1 31.25 g/ha) was found to be 0; in [4] (post emergence, I.1 62.5 g/ha), 0. Also, the “herbicidal activity against MATCH found” value was found to be 0 in assay [5] (post emergence, B.167 62.5 g/ha a.i.) and 30 in [5] (post emergence, B.167 125 g/ha a.i.). The “herbicidal activity against POLCO found” value was found to be 0 in assay [6] (post emergence, I.1 15.62 g/ha, B.167 62.5 g/ha a.i.); 30 in [6] (post emergence, I.1 15.62 g/ha, B.167 125 g/ha a.i.); 0 in assay [6] (post emergence, I.1 62.5 g/ha, B.167 62.5 g/ha a.i.); 30 in assay [6] (setting [14]).

With `Cc1cnc2c(C(=O)O)c(Cl)ccc2c1` [B.169, quinmerac], the pest or weed control at 62.5 g/ha turned out to be 0% in [8] (B.169 62.5 g/ha a.i.); 0% in [9] (B.169 62.5 g/ha a.i.); 0% in [1] (Echinochloa crus-galli, post-emergence, 480 h, post emergence, B.169 62.5 g/ha a.i., read-out: herbicidal activity against ECHCG found); 65% in assay [2] (post emergence, B.169 62.5 g/ha a.i.); 10% in assay [4] (Bassia scoparia, post-emergence, 480 h, post emergence, B.169 62.5 g/ha a.i., read-out: herbicidal activity against KCHSC found). For the same compound, the pest or weed control at 125 g/ha in assay [2] (post emergence, B.169 125 g/ha a.i.) stood at 75%; in [4] (Bassia scoparia, post-emergence, 480 h, post emergence, B.169 125 g/ha a.i., read-out: herbicidal activity against KCHSC found), 25%.

With `Nc1c([N+](=O)[O-])ccc(Oc2ccccc2)c1Cl` [aclonifen], the pest or weed control at 250 g/ha came to 30% in [8] (aclonifen 250 g/ha a.i.); 50% in assay [1] (Echinochloa crus-galli, post-emergence, 480 h, post emergence, aclonifen 250 g/ha a.i., read-out: herbicidal activity against ECHCG found); 80% in [12]; 30% in assay [3] (Geranium dissectum, post-emergence, 480 h, post emergence, aclonifen 250 g/ha a.i., read-out: herbicidal activity against GERDI found); 0% in [5] (Matricaria chamomilla, post-emergence, 480 h, post emergence, aclonifen 250 g/ha a.i., read-out: herbicidal activity against MATCH found); 85% in [6] (Fallopia convolvulus, post-emergence, 480 h, post emergence, aclonifen 250 g/ha a.i., read-out: herbicidal activity against POLCO found). Also, the pest or weed control at 500 g/ha in [8] (aclonifen 500 g/ha a.i.) amounted to 60%; in assay [1] (Echinochloa crus-galli, post-emergence, 480 h, post emergence, aclonifen 500 g/ha a.i., read-out: herbicidal activity against ECHCG found), 80%; in [2] (post emergence, aclonifen 500 g/ha a.i.), 0%; in assay [3] (Geranium dissectum, post-emergence, 480 h, post emergence, aclonifen 500 g/ha a.i., read-out: herbicidal activity against GERDI found), 70%; in [5] (Matricaria chamomilla, post-emergence, 480 h, post emergence, aclonifen 500 g/ha a.i., read-out: herbicidal activity against MATCH found), 0%; in assay [6] (Fallopia convolvulus, post-emergence, 480 h, post emergence, aclonifen 500 g/ha a.i., read-out: herbicidal activity against POLCO found), 95%. Also, the pest or weed control at 1000 g/ha is 70% in [8] (aclonifen 1000 g/ha a.i.); 0% in assay [2] (post emergence, aclonifen 1000 g/ha a.i.); 0% in assay [5] (Matricaria chamomilla, post-emergence, 480 h, post emergence, aclonifen 1000 g/ha a.i., read-out: herbicidal activity against MATCH found); 85% in assay [6] (Fallopia convolvulus, post-emergence, 480 h, post emergence, aclonifen 1000 g/ha a.i., read-out: herbicidal activity against POLCO found).
